Measurements reported in US10551313B1, “Surface plasmon resonance based mechanical sensing of beating heart cells” (The Florida International University Board of Trustees, priority 2019, dated 2020).

Tested on: living cardiomyocytes
Experiment: SPR based sensing of beating (cardiac activity) of cardiomyocytes cultured on the SPR sensing surface
Format: cell-based, rat
Conditions: injection of 10 μM, SPR resonance angle shift vs time, compared with control group without injection (FIG. 5)
From the text: In one particular embodiment, rat cardiomyocytes were isolated from neonatal rat hearts from day one through day three and cultured on the SPR sensing surface 100 of the SPR based sensing system. Subsequently, the spontaneous contractions, expansions, or movements of the rat cardiomyocytes under normal living conditions were monitored by using the SPR based sensing system. In an embodiment, the SPR based sensing system can sense the beating characteristics of the living cardiomyocytes after the living cardiomyocytes is stimulated by an injection of a stimulator such as, for example, adenosine triphosphate (ATP). In another embodiment, the SPR based sensing system can sense the beating characteristics of the living cardiomyocytes after the living cardiomyocytes is inhibited by an injection of an inhibitor such as, for example, blebbistatin.

Row | SMILES | cardiac activity (beating frequency) of the cardiomyocytes
1 | Nc1ncnc2c1ncn2[C@@H]1O[C@H](COP(=O)(O)OP(=O)(O)OP(=O)(O)O)[C@@H](O)[C@H]1O [ATP, adenosine triphosphate] | higher cardiac activity (faster beats with frequencies higher than the baseline frequencies)
2 | Cc1ccc2c(c1)C(=O)C1(O)CCN(c3ccccc3)C1=N2 (centres unmarked) [blebbistatin] | lower cardiac activity (slower beats with frequencies lower than the baseline frequencies)
